Drawing on PubChem BioAssay (NCI), this text covers TGI for seven molecules.

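Dose response: 5 concentrations. Exposure: 48 h. Format: 96-well plates. Endpoint: linear interpolation; highest concentration if not reached. TGI: concentration producing complete growth inhibition.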

Assay in all cases: NCI anticancer screen, dose series, 48 h
Assay [1] has as its system MCF7 breast.
Assay [2] relates to LOX IMVI melanoma.
Assay [3] deals with A498 renal.
The test system of assay [4] is CCRF-CEM leukemia.
For assay [5], the system named is NCI-H460 lung.
Assay [6] concerns SF-295 CNS.
Assay [7] concerns A549 NSCLC.
Assay [8] has as its system SF-539 CNS.
The subject of assay [9] is MALME-3M melanoma.
Assay [10] has as its system DU-145 prostate.
The subject of assay [11] is KM12 colon.
Assay [12] concerns SF-268 CNS.
Assay [13] deals with IGROV1 ovarian.
The test system of assay [14] is MDA-MB-435.
Assay [15] deals with COLO 205 colon.
The subject of assay [16] is OVCAR-3 ovarian.
The test system of assay [17] is SW-620 colon.
Assay [18] concerns SR leukemia.
Assay [19] relates to HCT-116 colon.

Turning to `CC1(c2cccc(C(F)(F)F)c2)CC(c2cccc(C(F)(F)F)c2)=C(C#N)C(=C(C#N)C#N)N1` (stereo not drawn), the TGI in [1] was determined as 34.9 µM; in assay [2], 34.1 µM; in assay [3], 32.7 µM; in assay [4], 24.1 µM; in assay [5], 45.8 µM; in assay [6], 31 µM. Also, the TGI in assay [7] was 39.9 µM; in assay [8], 34.9 µM; in assay [9], 32.4 µM; in [10], 31 µM; in assay [11], 32.9 µM; in assay [12], 31.1 µM. In addition, the TGI was found to be 30.6 µM in assay [13]; 32.6 µM in assay [14]; 30.8 µM in assay [15]; 24.6 µM in assay [16]; 52.1 µM in assay [17]; 30 µM in assay [18]. The TGI in assay [19] worked out at 29.2 µM.
Turning to `COc1ccc(/C=N/n2c(Cc3ccccc3)n[nH]c2=O)c(OC)c1`, the TGI is more than 100 µM in assay [1]; more than 85.3 µM in [2]; more than 66 µM in assay [3]; more than 100 µM in [4]; more than 92.5 µM in [5]; more than 61.4 µM in assay [6]. For the same molecule, the TGI is more than 58.4 µM in [7]; more than 100 µM in [8]; more than 100 µM in assay [9]; more than 100 µM in [10]; more than 100 µM in assay [11]; 47 µM in assay [12]. Further, the TGI in assay [13] is more than 100 µM; in assay [14] it was more than 100 µM; in [15], more than 31.6 µM; in assay [16], more than 100 µM; in assay [17] it was more than 100 µM; in assay [18], more than 100 µM. In assay [19], this molecule yielded a TGI of more than 55.1 µM.
Take `CCc1n[nH]c(=O)n1N`: the TGI in assay [1], in assay [2], in [3], in [4], in [5] and in assay [6] was more than 100 µM throughout. Moreover, the TGI in [7], in [8], in assay [9], in assay [10], in assay [11] and in assay [12] was more than 100 µM in each case. Further, the TGI in assay [13], in assay [14], in assay [15], in assay [16], in assay [17] and in [18] was more than 100 µM in each case. The TGI in [19] is more than 100 µM.
For `O=C(NC1C(=O)NC(CCc2ccccc2)NC1=O)OCc1ccccc1` (stereo not drawn), the TGI in [1], in assay [2], in assay [3], in assay [4], in [5] and in assay [6] was more than 100 µM throughout. Moreover, the TGI in assay [7], in assay [8], in assay [9], in assay [10], in [11] and in [12] was more than 100 µM throughout. For the same molecule, the TGI in [13], in assay [14], in assay [15], in assay [16], in assay [17] and in [18] was more than 100 µM each time. The same molecule returned a TGI in assay [19] of more than 100 µM.
In the case of `CSCCCNC(=O)c1csc(-c2csc(CCNC(=O)CNC(=O)OC(C)(C)C)n2)n1`, the TGI in assay [1], in [2], in [3], in [4], in assay [5] and in [6] was more than 100 µM each time. Also, the TGI in assay [7], in assay [8], in assay [9], in [10], in [11] and in assay [12] was more than 100 µM each time. Moreover, the TGI in assay [13], in [14], in [15], in assay [16], in assay [17] and in [18] was more than 100 µM in each case. Further, the TGI in assay [19] is more than 100 µM.
For `c1ccc([P+](Cc2ccc(C[P+](c3ccccc3)(c3ccccc3)c3ccccc3)s2)(c2ccccc2)c2ccccc2)cc1`, the TGI in [1], in [2], in assay [3], in [4], in assay [5] and in [6] was more than 100 µM each time. In addition, the TGI in assay [7], in assay [8], in assay [9], in assay [10], in [11] and in [12] was more than 100 µM in each case. Besides, the TGI in assay [13], in assay [14], in [15], in assay [16], in assay [17] and in assay [18] was more than 100 µM each time. This molecule showed a TGI in assay [19] of more than 100 µM.
Turning to `CCc1cccc(CC)c1Nc1nc(-c2ccccc2-c2ccccc2)cs1`, the TGI in assay [1], in [2], in assay [3], in assay [4], in [5] and in assay [6] was more than 100 µM in each case. Besides, the TGI in [7], in assay [8], in [9], in assay [10], in assay [11] and in [12] was more than 100 µM each time. Besides, the TGI in assay [13], in [14], in assay [15], in assay [16], in [17] and in [18] was more than 100 µM in each case. The molecule further displayed a TGI in [19] of more than 100 µM.
